{
  "source": "patent EP0235773A1",
  "about": "“Improved pesticide formulations” (Shell Agrar GmbH & Co. KG, priority 1986, dated 1987)",
  "key": {"[1]": {"experiment": "Approximate solubility of solutes in butyrolactone (BLO)", "assay_type": "physicochemical", "details": "solvent BLO; approximately 25-30°C", "experimental": "In formulating the solutions of chlorflurenol and solvent, it was necessary to agitate the solution in order to dissolve the chlorflurenol in the BLO, M-Pyrol, or BLO/M-PYROL.\nFrom tests conducted, the following approximate solubilities at temperatures of approximately 25-30°C. were determined.\nTechnical dicamba acid - 86.9% acid equivalent Technical sodium salt of dicamba acid - 76% acid equivalent Technical chlorflurenol methyl ester - 95-98% total methal esters"}, "[2]": {"details": "cited from earlier work"}},
  "note": "Structures can show the parent of a compound that is named as a salt.",
  "data": [
    {"smiles": "COc1c(Cl)ccc(Cl)c1C(=O)O", "note": "[Technical sodium salt of dicamba]", "values": [
      {"measurement": "Solubility for acid Equivalent Concentration", "setting": "[1]", "result": "Less than 1%"}
    ]},
    {"smiles": "COC(=O)C1(O)c2ccccc2-c2ccc(Cl)cc21", "note": "(stereo not drawn) [Technical chlorflurenol methy ester, chlorflurenol methyl ester]", "values": [
      {"measurement": "water solubility", "setting": "[2]", "result": 0.0018, "unit": "grams/100 grams water"},
      {"measurement": "Solubility for acid Equivalent Concentration", "setting": "[1]", "result": "approximately 25%"}
    ]}
  ]
}
